In ChEMBL document CHEMBL3751789, “Synthesis, isomerization and biological activity of novel 2-selenohydantoin derivatives” (Bioorg Med Chem, 2016):
Calls of active or inactive are those of the source. The rule behind the calls is not given here.

How the values were obtained:
HepG2 = test: Cytotoxicity against human HepG2 cells after 48 hrs by MTT assay; format: functional
[1] = (§1) Cytotoxicity against HEK293 cells after 48 hrs by MTT assay; format: cell-based; details: human, HEK293 cells
SiHa = test: Cytotoxicity against human SiHa cells after 48 hrs by MTT assay; format: functional
MCF7 = test: Cytotoxicity against human MCF7 cells after 48 hrs by MTT assay; format: functional
[2] = Antioxidant activity assessed as electrochemical reduction using glass carbon electrode by cyclic voltammetric analysis; format: physicochemical
[3] = Antioxidant activity assessed as electrochemical reduction using Au electrode by cyclic voltammetric analysis; format: physicochemical
[4] = Antioxidant activity assessed as oxidation potential using glass carbon electrode by cyclic voltammetric analysis; format: physicochemical
[5] = Antioxidant activity assessed as oxidation potential using Au electrode by cyclic voltammetric analysis; format: physicochemical
[6] = Antioxidant activity assessed as peroxide reduction rate at 80 uM using H2O2/GSH as substrate/hydrogen-donar by GPx-based assay; format: physicochemical
[7] = Antioxidant activity assessed as peroxide reduction rate at 80 uM using H2O2/4-aminoantipyrine as substrate/hydrogen-donar; format: physicochemical
[8] = Antioxidant activity assessed as peroxide reduction rate at 80 uM using H2O2/pyrocatechol as substrate/hydrogen-donar; format: physicochemical
[9] = Antioxidant activity assessed as peroxide reduction rate at 80 uM using H2O2/pyrogallol as substrate/hydrogen-donar by ABTS-based assay; format: physicochemical
[10] = Antioxidant activity assessed as peroxide reduction rate at 80 uM using H2O2/guaiacol as substrate/hydrogen-donar by ABTS-based assay; format: physicochemical
HEK293 [11] = test: Selectivity index, ratio CC50 for HEK293 cells to CC50 for human HepG2 cells; format: functional
HEK293 [12] = test: Selectivity index, ratio CC50 for HEK293 cells to CC50 for human SiHa cells; format: functional
HEK293 [13] = test: Selectivity index, ratio CC50 for HEK293 cells to CC50 for human MCF7 cells; format: functional
HEK293 [14] = test: as §1; format: cell-based; details: human, hek293, 48 h

SMILES	CC50 (HepG2; HepG2, 48 h) [µM]	CC50 at 48 h [1] [µM]	CC50 (SiHa)	CC50 (MCF7; MCF7, 48 h) [µM]	Activity [2] [V]	Activity [3] [V]	Activity [4] [V]	Activity [5] [V]	Activity [6] [µM/min]	Activity [7] [µM/min]	Activity [8] [µM/min]	Activity [9] [µM/min]	Activity [10] [µM/min]	Selectivity Index (HEK293 [11])	Selectivity Index (HEK293 [12])	Selectivity Index (HEK293 [13])	CC50 (HepG2)	CC50 (HEK293 [14])	CC50 (MCF7)
C=CCN1C(=O)CNC1=S	40.7	58.2	42.4 µM	35.2															
O=C1/C(=C/c2ccccn2)NC(=[Se])N1C1CCCCC1					-2.2	-1.81	1.16	1.23	138	3	0	0	0						
C=CCN1C(=O)/C(=C/c2ccccn2)NC1=[Se]	29.8	42.6	23.6 µM	31.2	-2.15	-1.79	1.2	1.21	79	0	0	0	0	>2	>2	>2			
C=CCN1C(=O)CNC1=[Se]	16.4	10.3	12.7 µM	44.1															
O=c1c2ccccc2[se]n1-c1ccccc1 [EBSELEN]									140										
CCOC(=O)CNC(=[Se])NC1CCCCC1									82	0	1.3	0	0						
C=CCN1C(=O)/C(=C/c2ccccn2)NC1=S			inactive						0	0	0	0	0				inactive	Not Active	inactive
C=CCN1C(=O)/C(=C/c2ccccn2)N=C1[Se]C	6.62	12.6	3.66 µM	7.18					0	0	0	0	0	>2	>2	>2			
C=CCN1C(=O)/C(=C/c2ccccn2)N=C1SC	56.7		102 µM															Not Active	inactive
O=C1/C(=C/c2ccccn2)N=C([Se]CC[Se]C2=N/C(=C\c3ccccn3)C(=O)N2C2CCCCC2)N1C1CCCCC1					-2.61	-1.86	1.46	1.28											
